Several values for one entry are separate records, joined by “and”; a condition that tells them apart may be missing. Equal entries are not always repeated.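 GI50 marks 50% less growth. TGI: concentration producing complete growth inhibition.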
Experiments:
Assay in all cases: inhibition of tumour cell growth, NCI panel, 384-well format
[1] = tested on: HOP-92 NSCLC
[2] = tested on: COLO 205 colon
[3] = tested on: SW-620 colon
[4] = tested on: TK-10 renal
[5] = tested on: OVCAR-4 ovarian
[6] = tested on: NCI-H226 lung
[7] = tested on: SK-MEL-28 melanoma
[8] = tested on: SK-OV-3 ovarian
[9] = tested on: CAKI-1 renal
[10] = tested on: BT-549 breast
[11] = tested on: K-562 leukemia
[12] = tested on: SF-295 CNS
[13] = tested on: MALME-3M melanoma
[14] = tested on: ACHN renal
[15] = tested on: NCI/ADR-RES ovarian
[16] = tested on: HS 578T breast
[17] = tested on: HCT-15 colon
[18] = tested on: NCI-H322M lung
[19] = tested on: MCF7 breast
[20] = tested on: SR leukemia
[21] = tested on: SNB-75 CNS
[22] = tested on: NCI-H23 lung
[23] = tested on: NCI-H522 lung
[24] = tested on: HCT-116 colon
[25] = tested on: MDA-MB-468 breast
[26] = tested on: OVCAR-8 ovarian
[27] = tested on: RXF 393 renal
[28] = tested on: SK-MEL-5 melanoma
[29] = tested on: DU-145 prostate
[30] = tested on: LOX IMVI melanoma
[31] = tested on: MOLT-4 leukemia
[32] = tested on: HL-60(TB) leukemia
[33] = tested on: MDA-MB-231 breast
[34] = tested on: M14 melanoma
[35] = tested on: KM12 colon
[36] = tested on: RPMI-8226 leukemia
[37] = tested on: OVCAR-5 ovarian
[38] = tested on: EKVX NSCLC
[39] = tested on: SF-539 CNS
[40] = tested on: A549 NSCLC
[41] = tested on: IGROV1 ovarian
[42] = tested on: HT29 colon
[43] = tested on: A498 renal
[44] = tested on: SNB-19 CNS
[45] = tested on: NCI-H460 NSCLC
[46] = tested on: U251 glioblastoma
[47] = tested on: UACC-62 melanoma
[48] = tested on: UACC-257 melanoma
[49] = tested on: SF-268 CNS
[50] = tested on: HOP-62 NSCLC
[51] = tested on: SK-MEL-2 melanoma
[52] = tested on: 786-0 renal
[53] = tested on: T-47D breast
[54] = tested on: PC-3 prostate
[55] = tested on: MDA-MB-435 melanoma
[56] = tested on: UO-31 renal
[57] = tested on: SN12C renal
[58] = tested on: OVCAR-3 ovarian

With `CCc1cc2c(cc1N1CCC(N3CCOCC3)CC1)C(C)(C)c1[nH]c3cc(C#N)ccc3c1C2=O` the GI50 [1] was 5.13 µM and 0.841 µM, the TGI [1] was 11.3 µM and 2.62 µM and the GI50 [2] was 7.03 µM and 1.16 µM. The GI50 [3] was 5.07 µM and 0.686 µM, the GI50 [4] was 11.4 µM and 1.45 µM and the TGI [4] was 26.6 µM and 3.09 µM. For the same compound, the GI50 [5] was 1.19 µM and 0.437 µM, the TGI [5] was 2.46 µM and 1.5 µM and the GI50 [6] was 3.1 µM. For the same compound, the TGI [6] was 8.34 µM and 2.64 µM, the GI50 [7] was 17.5 µM and 1.8 µM and the TGI [7] was 31.3 µM and 3.56 µM. The GI50 [8] was 11 µM and 1.15 µM, the GI50 [9] was 5.87 µM and 2.17 µM and the TGI [9] was 14.2 µM and 5.76 µM. For the same compound, the GI50 [10] was 4.75 µM and 0.496 µM, the TGI [10] was 9 µM and 1.62 µM and the GI50 [11] was 0.633 µM. For the same compound, the TGI [11] was 5.17 µM, the TGI [12] was 11.3 µM and 2.17 µM and the GI50 [13] was 2.11 µM and 0.839 µM. The TGI [13] was 5.69 µM and 2.24 µM, the GI50 [14] was 5.04 µM and 1.42 µM and the TGI [14] was 12.3 µM and 3.12 µM. The GI50 [15] was 0.666 µM and 1.54 µM, the TGI [15] was 2.96 µM and 4.51 µM and the TGI [16] was 8.55 µM and 1.21 µM. The TGI [17] was 8.23 µM and 1.45 µM, the TGI [18] was 29.4 µM and 3.81 µM and the TGI [19] was 8.58 µM and 2.05 µM. The TGI [20] was 0.686 µM, the TGI [21] was 10.6 µM and 1.07 µM and the GI50 [22] was 4.88 µM and 1.47 µM. For the same compound, the TGI [22] was 13.1 µM and 10.9 µM, the GI50 [23] was 2.92 µM and 1.15 µM and the TGI [23] was 8.64 µM and 2.58 µM. The GI50 [24] was 5.79 µM and 1.47 µM, the TGI [24] was 11.5 µM and 3.08 µM and the GI50 [25] was 2.56 µM and 0.567 µM. The TGI [25] was 6.54 µM and 1.71 µM, the GI50 [26] was 4.12 µM and 1.11 µM and the TGI [26] was 8.68 µM and 2.36 µM. For the same compound, the GI50 [27] was 2.45 µM and 0.547 µM, the TGI [27] was 7.13 µM and 1.88 µM and the TGI [28] was 8.31 µM and 1.6 µM. The GI50 [29] was 1.63 µM and 0.992 µM, the TGI [29] was 6.57 µM and 2.37 µM and the GI50 [30] was 4.67 µM and 1.17 µM. For the same compound, the TGI [30] was 9.04 µM and 2.67 µM, the GI50 [31] was 1.92 µM and 0.302 µM and the TGI [31] was 7.47 µM and 1.5 µM. The GI50 [32] was 6.14 µM and 0.686 µM, the TGI [32] was 10.9 µM and 1.9 µM and the GI50 [33] was 1.11 µM and 1.26 µM. The TGI [33] was 2.73 µM and 3.32 µM, the GI50 [34] was 5.43 µM and 0.726 µM and the TGI [34] was 13.3 µM and 4.3 µM. For the same compound, the TGI [35] was 6.7 µM and 1.47 µM, the GI50 [36] was 1.74 µM and 0.399 µM and the TGI [36] was 4.44 µM and 1.85 µM. The GI50 [37] was 5.33 µM and 1.21 µM, the GI50 [38] was 4.67 µM and 1.37 µM and the TGI [38] was 11.4 µM and 2.98 µM.

`Cc1cc(Oc2ccc3nc(COc4ccc(CC5SC(=O)NC5=O)cc4)n(C)c3c2)cc(C)c1N` (stereo not drawn) gave a GI50 [1] of 23.9 µM, a TGI [1] of 60.6 µM and a GI50 [39] of 17.5 µM. It also gave a TGI [39] of 33.9 µM, a GI50 [2] of 33.7 µM and a TGI [2] of 82.7 µM. For the same compound, the GI50 [3] was 25.6 µM, the TGI [3] was 68.8 µM and the GI50 [4] was 27.4 µM. For the same compound, the TGI [4] was 80.5 µM, the GI50 [5] was 29.4 µM and the TGI [5] was 75.2 µM. For the same compound, the GI50 [40] was 24.8 µM, the TGI [40] was 58.2 µM and the GI50 [41] was 29.6 µM. For the same compound, the TGI [41] was 79.5 µM, the GI50 [6] was 22.6 µM and the TGI [6] was 46.7 µM. For the same compound, the GI50 [7] was 23 µM, the TGI [7] was 50.7 µM and the GI50 [42] was 27.2 µM. For the same compound, the TGI [42] was 73.1 µM, the GI50 [43] was 25.7 µM and the TGI [43] was 62.9 µM. For the same compound, the GI50 [44] was 42 µM, the TGI [44] was over 100 µM and the GI50 [8] was 25.8 µM. For the same compound, the TGI [8] was 66.4 µM, the GI50 [45] was 15.9 µM and the TGI [45] was 31.9 µM. The GI50 [46] was 21 µM, the TGI [46] was 45.1 µM and the GI50 [9] was 29.5 µM. For the same compound, the TGI [9] was 74.9 µM, the GI50 [10] was 16.4 µM and the TGI [10] was 31.2 µM. It also gave a GI50 [47] of 17.7 µM, a TGI [47] of 31.9 µM and a GI50 [11] of 18.8 µM. It also gave a TGI [11] of 49.1 µM, a GI50 [12] of 26.3 µM and a TGI [12] of 66.4 µM. It also gave a GI50 [13] of 20.7 µM, a TGI [13] of 39.3 µM and a GI50 [48] of 24.5 µM. For the same compound, the TGI [48] was 48.6 µM, the GI50 [14] was 31.3 µM and the TGI [14] was 98.7 µM. It also gave a GI50 [49] of 23.9 µM, a TGI [49] of 57.7 µM and a GI50 [50] of 14.6 µM. For the same compound, the TGI [50] was 35 µM, the GI50 [16] was 18.6 µM and the TGI [16] was 42.6 µM. It also gave a GI50 [51] of 20.3 µM, a TGI [51] of 35.6 µM and a GI50 [52] of 30.2 µM. For the same compound, the TGI [52] was over 100 µM, the GI50 [17] was 21.7 µM and the TGI [17] was 43 µM. The GI50 [18] was 32.8 µM, the TGI [18] was 77.4 µM and the GI50 [19] was 5.45 µM. It also gave a TGI [19] of 22 µM, a GI50 [53] of 16.9 µM and a TGI [53] of 31.1 µM. It also gave a GI50 [20] of 6.93 µM, a TGI [20] of 19.4 µM and a GI50 [54] of 17.3 µM. It also gave a TGI [54] of 35.4 µM, a GI50 [21] of 22 µM and a TGI [21] of 50 µM. The GI50 [22] was 15.6 µM, the TGI [22] was 29.5 µM and the GI50 [23] was 20.4 µM. The TGI [23] was 41.4 µM, the GI50 [24] was 15.4 µM and the TGI [24] was 30.6 µM. The GI50 [25] was 16.7 µM, the TGI [25] was 36.2 µM and the GI50 [55] was 20 µM. For the same compound, the TGI [55] was 43.9 µM, the GI50 [26] was 22.4 µM and the TGI [26] was 53.7 µM. The GI50 [27] was 16.8 µM, the TGI [27] was 48.4 µM and the GI50 [28] was 18.8 µM. The TGI [28] was 32.9 µM, the GI50 [29] was 19 µM and the TGI [29] was 36 µM. The GI50 [56] was 24.1 µM, the TGI [56] was 56.9 µM and the GI50 [31] was 14 µM. For the same compound, the TGI [31] was 27.1 µM, the GI50 [32] was 14 µM and the TGI [32] was 27.2 µM. For the same compound, the GI50 [33] was 30.4 µM, the TGI [33] was over 100 µM and the GI50 [57] was 28.7 µM. The TGI [57] was over 100 µM, the GI50 [34] was 19.9 µM and the TGI [34] was 39.9 µM. The GI50 [35] was 17.2 µM, the TGI [35] was 31.8 µM and the GI50 [37] was 38.2 µM. The TGI [37] was over 100 µM, the GI50 [58] was 19.1 µM and the TGI [58] was 35.8 µM. It also gave a GI50 [38] of 22.6 µM and a TGI [38] of 44.2 µM.

— PubChem BioAssay (NCI)
